Reference: PubChem BioAssay AID256 (DTP/NCI, 2004)
Values joined by “and” are separate entries in the source; they are usually repeats but may differ in a detail not shown here. Equal entries are not always repeated. Inconclusive results and toxic doses are left out. Rule for the calls: active = survival T/C of 150% or more; inactive = T/C below 125% in these data.

Tested on: CD2F1 mice, L1210 leukemia ip, survival T/C
Test: NCI In Vivo Anticancer Drug Screen. Data for tumor model L1210 Leukemia (intraperitoneal) in CD2F1 (CDF1) mice
Conditions: higher = longer survival
Method in brief: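 Activity against a transplanted murine tumor was judged by comparing the compound group with a vehicle group. The outcome in the treated animals was divided by that in the controls.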

[1] = endpoint: mean survival time, dose: 100.0 mg/kg/injection, schedule: Q04DX002 (ip), vehicle: saline with Tween-80
[2] = endpoint: mean survival time, dose: 200.0 mg/kg/injection, schedule: Q04DX002 (ip), vehicle: saline with Tween-80
[3] = endpoint: mean survival time, dose: 400.0 mg/kg/injection, schedule: Q04DX002 (ip), vehicle: saline with Tween-80
[4] = endpoint: mean survival time, dose: 75.0 mg/kg/injection, schedule: Q01DX001 (ip), vehicle: other
[5] = endpoint: mean survival time, dose: 150.0 mg/kg/injection, schedule: Q01DX001 (ip), vehicle: other
[6] = endpoint: mean survival time, dose: 100.0 mg/kg/injection, schedule: Q01DX009 (ip), vehicle: saline with Tween-80
[7] = endpoint: mean survival time, dose: 100.0 mg/kg/injection, schedule: Q04DX003 (ip), vehicle: saline with Tween-80
[8] = endpoint: mean survival time, dose: 200.0 mg/kg/injection, schedule: Q01DX009 (ip), vehicle: saline with Tween-80
[9] = endpoint: mean survival time, dose: 200.0 mg/kg/injection, schedule: Q04DX003 (ip), vehicle: saline with Tween-80
[10] = endpoint: mean survival time, dose: 400.0 mg/kg/injection, schedule: Q04DX003 (ip), vehicle: saline with Tween-80

Measured: T/C

CC12CCC=CC1=CC(=O)CC2 (configuration not stated)
inactive: [1] 96 % of control | [2] 100 % of control | [3] 124 % of control

O=C(O)C(=O)Cc1cccc(Cl)c1[N+](=O)[O-]
inactive: endpoint: mean survival time, dose: 37.5 mg/kg/injection, schedule: Q01DX009 (ip), vehicle: saline 97 % of control | endpoint: mean survival time, dose: 75.0 mg/kg/injection, schedule: Q01DX009 (ip), vehicle: saline 103 % of control | endpoint: mean survival time, dose: 150.0 mg/kg/injection, schedule: Q01DX009 (ip), vehicle: saline 97 % of control

CC(C)=C/C(C)=C(/C#N)C(=O)OC(C)C
inactive: endpoint: mean survival time, dose: 75.0 mg/kg/injection, schedule: Q01DX001 (ip), vehicle: saline 97 % of control | endpoint: mean survival time, dose: 150.0 mg/kg/injection, schedule: Q01DX001 (ip), vehicle: saline 97 % of control

NCc1cc(O)c(O)c(O)c1
inactive: endpoint: median survival time, dose: 37.5 mg/kg/injection, schedule: Q01DX005 (ip), vehicle: saline 114 % of control
active: endpoint: median survival time, dose: 150.0 mg/kg/injection, schedule: Q01DX005 (ip), vehicle: saline 153 % of control | endpoint: median survival time, dose: 300.0 mg/kg/injection, schedule: Q01DX005 (ip), vehicle: saline 156 % of control and 160 % of control

O=C1CSC(=S)N1/N=C/c1ccccc1Cl
inactive: [4] 96 % of control | [5] 96 % of control | endpoint: mean survival time, dose: 300.0 mg/kg/injection, schedule: Q01DX001 (ip), vehicle: other 94 % of control

CC#CS(=O)(=O)C(C)(C)C
inactive: endpoint: mean survival time, dose: 50.0 mg/kg/injection, schedule: Q01DX009 (ip), vehicle: saline with Tween-80 100 % of control | [6] 100 % of control | [7] 93 % of control | [8] 97 % of control | [9] 90 % of control

CC(C)NC(=O)CCCN(C(=O)OCc1ccccc1)N(C)C(=O)OCc1ccccc1
inactive: endpoint: mean survival time, dose: 25.0 mg/kg/injection, schedule: Q04DX003 (ip), vehicle: Klucel (hydroxypropylcellulose) (HPC) 94 % of control | endpoint: mean survival time, dose: 50.0 mg/kg/injection, schedule: Q04DX003 (ip), vehicle: Klucel (hydroxypropylcellulose) (HPC) 91 % of control | endpoint: mean survival time, dose: 100.0 mg/kg/injection, schedule: Q04DX003 (ip), vehicle: Klucel (hydroxypropylcellulose) (HPC) 103 % of control | endpoint: mean survival time, dose: 200.0 mg/kg/injection, schedule: Q04DX003 (ip), vehicle: Klucel (hydroxypropylcellulose) (HPC) 91 % of control | endpoint: mean survival time, dose: 400.0 mg/kg/injection, schedule: Q04DX003 (ip), vehicle: Klucel (hydroxypropylcellulose) (HPC) 95 % of control

CC(C)(C)C(=O)CC(=O)C(C)(C)C.CC(C)(C)C(=O)CC(=O)C(C)(C)C.CC(C)(C)C(=O)CC(=O)C(C)(C)C.[Y]
inactive: [7] 97 % of control | [9] 95 % of control | [10] 91 % of control

CC(C)CCCC(C)C1CCC2C3CC(C(=O)O)C(C)(CCC(=O)O)C3CCC12C (configuration not stated)
inactive: [4] 108 % of control | [5] 104 % of control

COc1ccc(C=Nc2ccc(C)cc2)cc1
inactive: [6] 108 % of control | [7] 103 % of control | [8] 98 % of control | [9] 115 % of control | endpoint: mean survival time, dose: 400.0 mg/kg/injection, schedule: Q01DX009 (ip), vehicle: saline with Tween-80 104 % of control | [10] 116 % of control

NNC(=O)CCC(=O)NN
inactive: endpoint: mean survival time, dose: 6.25 mg/kg/injection, schedule: Q01DX009 (ip), vehicle: saline 111 % of control | endpoint: mean survival time, dose: 12.5 mg/kg/injection, schedule: Q01DX009 (ip), vehicle: saline 103 % of control | endpoint: mean survival time, dose: 25.0 mg/kg/injection, schedule: Q01DX009 (ip), vehicle: saline 97 % of control | endpoint: mean survival time, dose: 100.0 mg/kg/injection, schedule: Q04DX003 (ip), vehicle: saline 98 % of control | endpoint: mean survival time, dose: 200.0 mg/kg/injection, schedule: Q04DX003 (ip), vehicle: saline 113 % of control | endpoint: mean survival time, dose: 400.0 mg/kg/injection, schedule: Q04DX003 (ip), vehicle: saline 101 % of control

O=c1[nH]c2ccccc2c2c3ccccc3nn12
inactive: endpoint: mean survival time, dose: 25.0 mg/kg/injection, schedule: Q04DX002 (ip), vehicle: saline with Tween-80 113 % of control | endpoint: mean survival time, dose: 50.0 mg/kg/injection, schedule: Q04DX002 (ip), vehicle: saline with Tween-80 103 % of control | [1] 96 % of control and 100 % of control | [2] 100 % of control and 106 % of control | [3] 103 % of control

Cc1c(OCc2ccccc2)cccc1[N+](=O)[O-]
inactive: endpoint: mean survival time, dose: 100.0 mg/kg/injection, schedule: Q01DX009 (ip), vehicle: other 97 % of control | [7] 92 % of control | endpoint: mean survival time, dose: 200.0 mg/kg/injection, schedule: Q01DX009 (ip), vehicle: other 105 % of control | [9] 87 % of control | endpoint: mean survival time, dose: 400.0 mg/kg/injection, schedule: Q01DX009 (ip), vehicle: other 112 % of control | [10] 90 % of control
